Assay results reported in patent US10798893B2, “Induced chromosome doubling in plants” (Dow AgroSciences LLC, priority 2009, dated 2020).
Where two headings read alike, the source gives them in different places.

Assays:
rabbit = conditions: cited from earlier work
[1] = tested on: haploid germinated maize seedlings
Text: An exemplary cycloalkene, 1,2,3-Trimethoxy-4-(1S,6R)-6-nitro-cyclohex-3-enyl)-benzene, designated as compound 1 was used to determine double haploid efficiency, doubling rate by a coleoptile tip cutting, seedling soaking method. […] Data provided in Tables 1, 2 and 3 were generated using haploid seeds obtained through cross pollination of a maize line of interest with an inducer maize line.
The resulting maize seeds were sorted based on marker gene color.
Coleoptile tips in maize seedlings were cut and the seedlings were soaked in various chromosome doubling agents as shown in Table 1. Haploid maize seeds were germinated and the coleoptile tips were excised (1-2 mm). Seedlings that survived were transplanted and grown until tassels and silk formed. Plants that produced tassels and silk were self-pollinated. Seeds produced from the self-pollination were visually assessed for the marker to identify them as double haploid (dihaploid).

[2] = tested on: germinated haploid maize seedlings; experiment: Foliar spray treatment of germinated haploid maize seedlings in soil at V1-V3 stage; type: in vivo
Description: Haploid maize seeds were planted in Sun Gro METRO-MIX® 306 planting mixture, which typically has a pH of 6.0 to 6.8 and an organic matter content of about 30 percent, in 72-well, plastic propagation flats (Dillen Products; Middlefield Ohio). When required to ensure good germination and healthy plants, a fungicide treatment and/or other chemical or physical treatment was applied. The plants were grown in a greenhouse with an approximate 15 hour photoperiod which was maintained at about 23-29° C. during the day and 22-28° C. during the night until they reached the V1-V3 growth stage. Nutrients and water were added on a regular basis and supplemental lighting was provided with overhead metal halide 1000-Watt lamps as necessary.
A weighed amount of compound 1, determined by the rate to be tested, was dissolved in 1.2 mL of dimethyl sulfoxide (DMSO) to obtain concentrated stock solutions. […] The concentrated stock solutions obtained were diluted with 10.8 mL of an aqueous mixture containing 1.25% v/v (volume/volume) Agri-dex Crop Oil Concentrate. Compound requirements are based upon a 12 mL application volume at a rate of 187 L/ha. Formulated compounds were applied to the plant material with an overhead Mandel track sprayer equipped with a 8002E nozzle calibrated to deliver 187 L/ha over an application area of 0.503 square meter at a spray height of 18 inches ([…]) above the average plant canopy height. Control plants were sprayed in the same manner with the solvent blank.
The treated plants and control plants were placed in a greenhouse, as described above, and watered by sub-irrigation to prevent wash-off of the test compounds. Approximately 14 days after treatment, the treated plants were transplanted to individual pots containing Sun Gro METRO-MIX® 360. Plants that produced tassels and silk were then self-pollinated to obtain dihaploid seed.
Table 3 illustrates the results of doubling rate after spray treatment with the chemicals of interest. […] The spray treated plant tassels and silks were synchronized well and the plants shed more pollen.

rats = experiment: Dermal toxicity on rats; type: in vivo, rat; conditions: 200 mg/kg
[3] = seedling soak, colchicine 0.06% w/v (rate cell empty)
[4] = after transplanting, rate 25 μM
[5] = after transplanting, rate 125 μM

Question: Which results are given for `COc1cc2c(c(OC)c1OC)-c1ccc(OC)c(=O)cc1[C@@H](NC(C)=O)CC2` [Colchicine, colchicine]?
Answer: Eye irritation (rabbit): about 1 %/3D; No. plants dead after TP ([1]; after transplanting, colchicine 0.06% w/v (rate cell empty)): 0; No. plants alive [1, 3]: 38; No. plants dead [1, 3]: 27

Question: Which “No. plants dead after TP” value ([1]; after transplanting, rate 5 μM) does the source give for `CC(C)OC(=O)Nc1cccc(Cl)c1` [Chlorpropham, chlorpropham] here?
Answer: Its value is 0.

Question: And the “No. plants dead after TP” value [1, 4]?
Answer: Its value is 0.

Question: What about the “No. plants dead after TP” value [1, 5] of the same compound?
Answer: The value was 0.

Question: What about the “# plants dead after treatment” value ([2]; spray, 70 g ai/ha) of the same compound?
Answer: Its value is 0.

Question: What about the “# plants dead after treatment” value ([2]; spray, 280 g ai/ha) of the same compound?
Answer: Its value is 1.

Question: For `C#CC(C)(C)NC(=O)c1cc(Cl)cc(Cl)c1` [Pronamide, pronamide], which “No. plants dead after TP” value ([1]; after transplanting, rate 5 μM) is on record?
Answer: Its value is 3.

Question: What about the “No. plants dead after TP” value [1, 4] of the same compound?
Answer: Its value is 1.

Question: And the “No. plants dead after TP” value [1, 5]?
Answer: Its value is 0.

Question: What about the “# plants dead after treatment” value ([2]; spray, 35 g ai/ha) of the same compound?
Answer: Its value is 0.

Question: What about the “# plants dead after treatment” value ([2]; spray, 140 g ai/ha) of the same compound?
Answer: Its value is 0.

Question: For `COc1ccc([C@@H]2CC=CC[C@H]2[N+](=O)[O-])c(OC)c1OC` [Compound 1, 1,2,3-Trimethoxy-4-((1S,6R)-6-nitro-cyclohex-3-enyl)-benzene], which dermal toxicity (rats) is on record?
Answer: The dermal toxicity was “No dermal toxicity was observed”.

Question: And the “No. plants dead after TP” value ([1]; maize, in vivo, 5 μM)?
Answer: Its value is 2.

Question: And the “No. plants dead after TP” value ([1]; maize, in vivo, 25 μM)?
Answer: Its value is 2.

Question: What about the “No. plants dead after TP” value ([1]; maize, in vivo, 125 μM) of the same compound?
Answer: Its value is 2.

Question: And the “# plants dead after treatment” value ([2]; maize, in vivo)?
Answer: The value was 0.
